Assay results published in PubChem BioAssay AID179 (DTP/NCI, 2004).
Calls of active or inactive are those of the source.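 Rule for the calls: active = compounds giving half or more protection of infected cells from virus-caused growth loss, again on retest; inactive = the rest.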

Test system: CEM cells HIV-1 protection, formazan growth assay
Assay: NCI AIDS Antiviral Assay
Conditions: for IC50: measured here: growth of uninfected CEM cells
Outline: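 Steps: treat uninfected and HIV-1-infected human CEM cells at five drug levels; quantify growth by soluble formazan; retest any compound reaching 50% protection; classify actives from the retest.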

SMILES | EC50 [µM] | IC50 [µM] | outcome
CCC(C)(CC(=O)O)CC(=O)OC[C@]12CC[C@@H](C(C)C)[C@@H]1[C@H]1CC[C@@H]3[C@@]4(C)CC[C@H](OC(=O)CC(C)(CC)CC(=O)O)C(C)(C)[C@@H]4CC[C@@]3(C)[C@]1(C)CC2 (stereo partly drawn) | > 200 | 7.08 | 
FC(F)(Sc1ncccn1)c1nc(-c2ccccc2)no1 | > 200 | 53.7 | 
COC(OC)/C(C)=N/NC1=Nc2ccc(Cl)cc2C(c2ccccc2Cl)=NC1 | > 12.3 | > 12.3 | 
NCCC=C(c1cc(Cl)c(O)c(C(=O)O)c1)c1cc(Cl)c(O)c(C(=O)O)c1 | 151 | > 200 | 
O=C(CC1(O)C(=O)Nc2ccc(Br)cc21)c1ccc(Cl)cc1Cl (stereo not drawn) | > 162 | 95.5 | 
Cc1ccc(S(=O)(=O)OC2C3OC(C)(C)OC3OC2C2CSC(=S=O)S2)cc1 (stereo not drawn) | > 67.6 | > 67.6 | 
Nc1nc2c(ncn2CC2OC(CO)C(CO)O2)c(=O)[nH]1 (stereo not drawn) | > 115 | > 115 | 
O=C(/C=C(\C(=O)c1cccs1)c1cccs1)c1ccc(C(=O)/C=C(\C(=O)c2cccs2)c2cccs2)cc1 | > 200 | > 200 | 
COc1cc(OC)c2ssc3c(OC)cc(OC)c4ssc1c2-c43 | > 13.2 | > 13.2 | 
CCOC(=O)c1cc(C2CCN(c3ccccc3)C2=O)c(C(=O)/C=C(/C)N)[nH]1 (stereo not drawn) | 57.5 | > 200 | 
OCC(O)C(O)C(O)c1nn(-c2ccccc2)c2nc3cc(Cl)c(Cl)cc3nc12 (stereo not drawn) |  |  | inactive
CC(C)=CCC/C(C)=C/Cc1c(O)ccc2cc(-c3cc(O)cc(O)c3CC=C(C)C)oc12 | > 22.4 | 18.2 | 
Cc1c(O)nc(CO)[nH]c1=O | > 200 | > 200 | 
NC(=O)C(=CNC(=S)N=Nc1c(O)[nH]c2ccccc12)C(N)=O | > 200 | 166 | 
CN(C)c1ncnc2c1Cc1ccccc1C(=O)N2C | 60.3 | 407 | 
COC(=O)CCCc1ccc2c(c1)CC1(C2)Cc2cc3c(cc2C1)CCCC3 | > 200 | 81.3 | 
C=C1CN(S(=O)(=O)c2ccc(C)cc2)CCCCN(Cc2ccccc2)CCCN(S(=O)(=O)c2ccc(C)cc2)C1 | > 200 | 6.92 | 
Brc1cscc1Cc1cscc1Br | > 200 | 74.1 | 
CC(=O)c1sc2c(c1OC(=O)c1cccs1)c(=O)n(-c1ccccc1)c(=S)n2-c1ccccc1 | > 200 | 3.8 | 
CC(C)(C)OC(=O)N/N=C(/N)Cc1ccc(Cl)cc1 | > 200 | 162 | 
N=C(N)Cn1cnc2ccccc21 | > 5500 | 4680 | 

SMILES | EC50 [µM] | IC50 [µM] | outcome
Cc1cccc2c1Oc1cc(Cl)ccc1C2NC(=O)CCN1CCN(CCO)CC1 (stereo not drawn) | > 200 | 13.5 | 
CN(C)N1CCOC1=O | > 200 | > 200 | 
COc1ccccc1[B-]12OCC[N+]1(CNC(=O)C1=C(O)C3(O)C(=O)C4=C(O)c5c(O)cccc5C(C)(O)C4CC3C(N(C)C)C1=O)CCO2 (stereo not drawn) | > 27.5 | > 27.5 | 
C[N+](C)(C)CC1CCC/C1=N/O (stereo not drawn) | > 832 | > 832 | 
CC(=O)N(C(C)=O)c1c(C)cc(-c2cccs2)oc1=O | > 200 | > 100 | 
N#CC(c1ccc(Cl)cc1)c1cccc(C(C#N)c2ccc(Cl)cc2)n1 (stereo not drawn) | > 661 | > 661 | 
O=Nc1c(-c2ccccc2)nc2ncccn12 | > 200 | 2.14 | 
CCCCCC(=O)OC1CN2CC[C@H](O)C2C(O)[C@@H]1O (stereo partly drawn) |  |  | inactive
O=c1ccn(Cc2ccccc2)c(=S)[nH]1 | > 200 | > 200 | 
O=C1Nc2ccccc2C12CCCC2 |  |  | inactive
CCOC(=O)/C(=C\c1ccc(Br)cc1)C(C)=O | > 120 | 70.8 | 
COC1/C=C/O[C@@]2(C)Oc3c(C)c(O)c4c(O)c(cc(O)c4c3C2=O)NC(=O)/C(C)=C\C=C\[C@H](C)C(O)[C@@H](C)[C@@H](O)[C@@H](C)[C@H](OC(C)=O)[C@@H]1C (stereo partly drawn) | > 174 | 8.13 | 
N#Cc1cc2c(cc1C#N)/C(=N\c1cccc(N)n1)N=C2Nc1cccc(N)n1 | > 200 | 4.07 | 
CCOC(=O)c1ccc(/C=C/c2cccn2C(=O)OC(C)(C)C)[nH]1 |  |  | inactive
COc1ccc(COCCOCc2nc(C#N)c(N)o2)cc1 | > 200 | 135 | 
N#CC1(C#N)C2(c3ccccc3)OC(c3ccccc3)(c3cc4ccccc4cc32)C1(C#N)C#N |  |  | inactive
N/N=C(\c1nc2ccc(Cl)cc2[nH]c1=O)C(O)c1ccc(Cl)c(Cl)c1 (stereo not drawn) | > 245 | 20.4 | 
O=C(Nc1cccc(C(F)(F)F)c1)C(=O)C1NC(=S)NC1=O (stereo not drawn) | > 191 | > 191 | 
CN(C)C=Nc1c(I)cc(I)c(CCC(=O)O)c1I | > 200 | > 200 | 
Cc1cc2c(C(C)C)c(O)c(O)c(C=O)c2c(O)c1-c1c(C)cc2c(C(C)C)c(O)c(O)c(C=Nc3ccc(Cc4ccc(N)cc4)cc3)c2c1O | 5.5 | 44.7 | 
NC1=Nc2cc(C(F)(F)F)ccc2Sc2nc3ccccc3n21 | > 200 |  | 
